The target of one assay is T1, D1 receptor (Homo sapiens, UniProt P21728).
T1 construct: expressed in transfected cells; host or cells: D1 transfected CHO cell line
In words: D1 Activation Adenylyl Cyclase Assay (cAMP FlashPlate, D1 transfected CHO cell line). The assay is classed as cell-based. Summed up: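 D1-transfected CHO cells (50,000/well) were exposed to compound 1/10 serial dilutions for 8 min at RT; cAMP measured by competitive 125I-cAMP FlashPlate against a standard curve. Response normalised between basal and saturating D1 agonist; EC50 at half-maximal stimulation, plateau reported as % maximal dopamine stimulation.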

For assay [1], the target named is human dopamine D2Long (D2L) receptors (Homo sapiens, UniProt P14416).
Assay [2] has as its target T2, human dopamine D1 receptor (Homo sapiens, UniProt P21728).
T2 construct: A 1.4 Kb Hind III to Xho I fragment was subcloned into the vector pMMLV; expressed in transfected cells; host or cells: CHO cells, clone CHO-D1M#9 (plasmid pHD1MMLV), membranes
In words: [3H]-SCH-23390 binding to cloned human dopamine D1 receptors (CHO cell membranes).

Setting [3] is: agonist activity at the D1 receptor, adenylate cyclase assay, D1 transfected CHO cell line, read-out: D1 EC50.
Where [4] appears, read: competitive binding, [3H]-SCH-23390, cloned human D1 in CHO membranes, read-out: D1 affinity Ki.

Structures can show the parent of a compound that is named as a salt. Where two headings read alike, the source gives them in different places.

T1 sequence (P21728 whole entry): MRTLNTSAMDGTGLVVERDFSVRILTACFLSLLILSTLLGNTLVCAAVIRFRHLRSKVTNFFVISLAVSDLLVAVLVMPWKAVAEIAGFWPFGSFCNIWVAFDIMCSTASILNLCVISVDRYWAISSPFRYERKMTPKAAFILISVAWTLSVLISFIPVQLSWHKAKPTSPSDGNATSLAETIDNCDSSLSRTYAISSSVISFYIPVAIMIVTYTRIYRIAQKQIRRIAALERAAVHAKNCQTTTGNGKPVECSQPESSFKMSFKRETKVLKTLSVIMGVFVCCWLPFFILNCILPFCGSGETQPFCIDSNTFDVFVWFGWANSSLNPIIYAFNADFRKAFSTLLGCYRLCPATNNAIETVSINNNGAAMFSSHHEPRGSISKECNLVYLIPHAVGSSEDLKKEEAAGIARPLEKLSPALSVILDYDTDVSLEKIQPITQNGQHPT
T2 sequence (P21728 whole entry, the tested form may be a part): as the sequence (P21728 whole entry) above
Sequence of human dopamine D2Long (D2L) receptors (P14416 whole entry): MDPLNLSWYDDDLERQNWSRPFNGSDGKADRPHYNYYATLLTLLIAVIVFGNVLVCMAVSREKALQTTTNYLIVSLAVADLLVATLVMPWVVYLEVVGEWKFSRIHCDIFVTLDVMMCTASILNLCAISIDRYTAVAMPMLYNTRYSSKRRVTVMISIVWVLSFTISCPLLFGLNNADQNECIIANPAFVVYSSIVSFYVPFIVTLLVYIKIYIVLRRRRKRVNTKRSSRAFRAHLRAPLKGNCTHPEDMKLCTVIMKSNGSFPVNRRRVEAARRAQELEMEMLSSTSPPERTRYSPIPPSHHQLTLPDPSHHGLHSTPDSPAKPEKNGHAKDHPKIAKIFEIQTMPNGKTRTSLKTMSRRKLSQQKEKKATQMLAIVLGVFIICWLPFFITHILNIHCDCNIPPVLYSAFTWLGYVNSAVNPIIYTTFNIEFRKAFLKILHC

For orientation: EC50 means the concentration giving half of the maximal effect. The Ki is a measure of affinity in units of concentration, obtained from inhibition or displacement. Regarding `Cc1ccc2c(c1O)C[C@@H](C1CCN(CC(C)c3ccccc3)CC1)O[C@H]2CN` (stereo partly drawn) [Example 29, (1R,3S)-1-Aminomethyl-3-[1-(2-phenyl-propyl)-piperidin-4-yl]-6-methyl-isochroman-5-ol dihydrobromide], the EC50 on D1 receptor (setting [3]) is 40 nM. Also, the inhibitory constant (Ki) in assay [1] is at least 10000 nM; in assay [2] (setting [4]) it was 64 nM.
On to `COc1ccc(OC(=O)N2CCC([C@@H]3Cc4c(ccc(C)c4O)[C@H](CN)O3)CC2)cc1` [Example 120, 4-((1R,3S)-1-Aminomethyl-5-hydroxy-6-methyl-isochroman-3-yl)-piperidine-1-carboxylic acid 4-methoxy-phenyl ester hydrochloride], for which the concentration for a half-maximal effect (EC50) on D1 receptor came to 36 nM. Further, the Ki in assay [1] turned out to be 767 nM; in assay [2], 45 nM.
For `Cc1ccc2c(c1O)C[C@@H](C1CCN(C(C)Cc3ccccc3)CC1)O[C@H]2CN` (stereo partly drawn) [Example 30, (1R,3S)-1-Aminomethyl-6-methyl-3-[1-(1-methyl-2-phenyl-ethyl)-piperidin-4-yl]-isochroman-5-ol dihydrobromide], at D1 receptor (setting [3]), the EC50 came to 60 nM. The Ki in assay [1] is at least 10000 nM; in assay [2] (setting [4]), 55.2 nM.
As for `Cc1ccc2c(c1O)C[C@@H](C1CCN(C(=O)Oc3ccccc3)CC1)O[C@H]2CN` [Example 113, 4-((1R,3S)-1-Aminomethyl-5-hydroxy-6-methyl-isochroman-3-yl)-piperidine-1-carboxylic acid phenyl ester hydrochloride], on D1 receptor, the EC50 stood at 4.2 nM. The results for the Ki in assay [1] and in assay [2] were at least 100000 nM and 30.5 nM, respectively.
For the molecule `Cc1ccc2c(c1O)C[C@@H](C1CCN(Cc3cccnc3)CC1)O[C@H]2CN` [Example 53, (1R,3S)-1-Aminomethyl-6-methyl-3-(1-pyridin-3-ylmethyl-piperidin-4-yl)-isochroman-5-ol dihydrochloride], the EC50 at D1 receptor (setting [3]) was 15 nM. For the same molecule, the Ki is at least 10000 nM in assay [1] and 60.7 nM in assay [2] (setting [4]).
For `Cc1ccc2c(c1O)C[C@@H](C1CCN(Cc3cn(Cc4ccccc4)c4ccccc34)CC1)O[C@H]2CN` [Example 91, (1R,3S)-1-Aminomethyl-3-[1-(1-benzyl-1H-indol-3-ylmethyl)-piperidin-4-yl]-6-methyl-isochroman-5-ol dihydrochloride], in that order: 12 nM, 43.4 nM and 40.7 nM.
Take `Cc1ccc2c(c1O)C[C@@H](C1CCN(Cc3cc(C(F)(F)F)ccc3Cl)CC1)O[C@H]2CN` [Example 77, (1R,3S)-1-Aminomethyl-3-[1-(2-chloro-5-trifluoromethyl-benzyl)-piperidin-4-yl]-6-methyl-isochroman-5-ol dihydrochloride]: at D1 receptor (setting [3]), the EC50 was 80 nM. For the same molecule, the Ki in assay [1] amounted to 40 nM; in assay [2] (setting [4]), 36 nM.
In the case of `Cc1ccc2c(c1O)C[C@@H](C1CCN(Cc3ccc(Cl)c(C(F)(F)F)c3)CC1)O[C@H]2CN` [Example 78, (1R,3S)-1-Aminomethyl-3-[1-(4-chloro-3-trifluoromethyl-benzyl)-piperidin-4-yl]-6-methyl-isochroman-5-ol dihydrochloride], the EC50 on D1 receptor (setting [3]) is 2 nM. In addition, the results for the Ki in assay [1] and in assay [2] (setting [4]) were 197 nM and 14 nM, respectively.
`CNC[C@@H]1O[C@H](C2CCN(Cc3ccc(F)cc3)CC2)Cc2c1ccc(C)c2O` [Example 95, 1R,3S)-3-[1-(4-Fluoro-benzyl)-piperidin-4-yl]-6-methyl-1-methylaminomethyl-isochroman-5-ol dihydrochloride]: on D1 receptor (setting [3]), the EC50 was determined as 250 nM. Also, the Ki was found to be 456 nM in assay [1] and 121 nM in assay [2] (setting [4]).
With `COc1cccc(CN2CCC([C@@H]3Cc4c(ccc(C)c4O)[C@H](CN)O3)CC2)c1` [Example 31, (1R,3S)-1-Aminomethyl-3-[1-(3-methoxy-benzyl)-piperidin-4-yl]-6-methyl-isochroman-5-ol dihydrochloride], on D1 receptor (setting [3]), the EC50 was 13 nM. The results for the Ki in assay [1] and in assay [2] (setting [4]) were 575 nM and 12 nM, respectively.

The values are drawn from patent US7919508B2, “3-piperidinylisochroman-5-ols as dopamine agonists” (Aventis Pharmaceuticals Inc., priority 2004, dated 2011).
